The IC50 is the concentration that inhibits the measured activity by half. One may read the Ki as a dissociation constant, usually derived from enzyme kinetics or from competition with a known ligand.

In assay [1] the target is T1, AChE from Electrophorus electricus (Electrophorus electricus, UniProt O42275).
T1 construct: purchased Sigma-Aldrich
The experiment in a line: biochemical. As to conditions: AChE from Electrophorus electricus (commercial enzyme); Ellman; Table 1; read-out: IC50 ± SEM, AChE. As for the experimental part:
(§1) The Ellman assay was used to test acetylcholinesterase (AChE from Electrophorus electricus, and human blood) and butyrylcholinesterase (BChE from equine serum) inhibition activity. Human blood was drawn using sterilized syringes and stored in BD Vacutainer tubes with heparin as an anticoagulant at 4 °C for 1 h. To lyse the erythrocytes, 1 mL of a 1:50 dilution of the blood sample was prepared with the non-ionic detergent triton X-100. A mixture of the DTNB (125 μL), enzyme solution (25 μL), and compound solution (25 μL) was prepared and incubated at room temperature for 20 min. All the assays were under 0.1 M KH2PO4/K2HPO4 buffer, pH 8.0. The substrate was added to start the enzymatic reaction. […] All measurements were performed fivefold as triplicate. The compounds were assayed in a dilution interval of 15 to 500 μg/mL.
A general note: Ellman's reagent forms a yellow product with free thiols.

The target in assay [2] is T2, AChE from human blood (Homo sapiens, UniProt P22303).
T2 construct: the enzyme extracted from human blood; from tissue; host or cells: human whole blood, erythrocytes lysed with Triton X-100
T2 sequence (P22303 32-617 isoform P22303-2 limits assumed): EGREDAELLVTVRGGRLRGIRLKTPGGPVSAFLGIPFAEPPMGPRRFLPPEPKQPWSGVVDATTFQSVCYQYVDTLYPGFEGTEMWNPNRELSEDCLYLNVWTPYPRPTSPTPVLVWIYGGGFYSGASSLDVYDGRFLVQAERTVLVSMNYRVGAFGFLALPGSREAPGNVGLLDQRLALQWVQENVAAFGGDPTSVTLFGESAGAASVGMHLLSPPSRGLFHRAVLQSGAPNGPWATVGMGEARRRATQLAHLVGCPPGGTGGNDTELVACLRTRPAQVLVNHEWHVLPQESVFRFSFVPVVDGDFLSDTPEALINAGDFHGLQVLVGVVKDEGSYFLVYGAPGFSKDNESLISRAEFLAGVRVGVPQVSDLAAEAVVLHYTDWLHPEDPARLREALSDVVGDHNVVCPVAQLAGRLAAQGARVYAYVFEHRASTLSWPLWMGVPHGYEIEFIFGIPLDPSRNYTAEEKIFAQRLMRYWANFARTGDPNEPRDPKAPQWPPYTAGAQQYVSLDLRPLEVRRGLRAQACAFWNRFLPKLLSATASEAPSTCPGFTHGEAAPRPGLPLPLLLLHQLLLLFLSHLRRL
The experiment in a line: biochemical. As to conditions: AChE obtained from human blood samples; Ellman; read-out: IC50 ± SEM, AChE hb. As for the experimental part: as §1, with “μg/mL. […] The percentage of inhibition was determined as follows: I(%)=(1−Aprobe/Ablank)100” for “μg/mL.”

Assay [3] deals with T3, butyrylcholinesterase (BChE from equine serum) (Equus caballus, UniProt P81908).
T3 construct: butyrylcholinesterase (from equine serum) were purchased from Sigma-Aldrich; purchased Sigma-Aldrich; host or cells: equine serum
T3 sequence (P81908 whole entry): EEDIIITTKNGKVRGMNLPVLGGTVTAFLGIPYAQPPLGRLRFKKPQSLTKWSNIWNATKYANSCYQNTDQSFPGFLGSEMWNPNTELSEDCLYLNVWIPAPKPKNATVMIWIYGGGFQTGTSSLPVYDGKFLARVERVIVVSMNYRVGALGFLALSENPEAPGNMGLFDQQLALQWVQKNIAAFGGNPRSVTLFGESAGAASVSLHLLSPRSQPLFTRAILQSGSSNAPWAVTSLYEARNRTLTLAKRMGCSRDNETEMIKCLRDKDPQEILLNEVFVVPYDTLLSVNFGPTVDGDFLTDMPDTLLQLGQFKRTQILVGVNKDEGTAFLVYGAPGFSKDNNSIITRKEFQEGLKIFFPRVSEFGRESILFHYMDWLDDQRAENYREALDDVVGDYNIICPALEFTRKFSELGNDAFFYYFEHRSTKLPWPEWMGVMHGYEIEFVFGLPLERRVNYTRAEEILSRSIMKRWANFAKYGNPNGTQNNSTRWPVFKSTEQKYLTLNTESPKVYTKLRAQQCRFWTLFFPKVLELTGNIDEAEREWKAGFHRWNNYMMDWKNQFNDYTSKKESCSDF
The assay is described as follows: Ellman assay, BChE inhibition. Type of assay: biochemical. As for the experimental part:
as §1, with “μg/mL. […] The percentage of inhibition was determined as follows: I(%)=(1−Aprobe/Ablank)100” for “μg/mL.”

In assay [4] the target is T4, AChE (Electrophorus electricus, UniProt O42275). The experiment in a line: biochemical. The conditions noted are these: for Inhibition Type: Lineweaver-Burk and Dixon plots. Type of assay: biochemical. As for the experimental part:
To investigate the inhibition mechanism of the tested compounds on AChE, a kinetic analysis was performed. The experiments were carried out using a combination of four substrate concentrations and three inhibitor concentrations with the view to obtain a double reciprocal plot (Lineweaver–Burk), in which each point is the mean of three different experiments. A parallel control with no inhibitor in the mixture allowed adjusting activities to be measured at various times.

Assay [5] has as its target T5, PAS of EeAChE (Electrophorus electricus, UniProt O42275).
T5 construct: purchased Sigma-Aldrich
The assay is described as follows: Propidium iodide displacement assay. Type of assay: binding. The conditions noted are these: 0.25 h, read-out: % Displacement of Propidium Iodide. As for the experimental part:
[…] Propidium iodide is known for ability to specifically binding to the PAS region of AChE.
The percentage inhibition was calculated by the following expression: 100-(IFi/IF0 × 100), where IF1 and IF0 correspond to fluorescence intensities with and without the test compound, respectively. Each assay was carried out in triplicate.

Assay [6] concerns the target T4, AChE. As to conditions: cited from earlier work; for IC50: read-out: IC50, AChE inhibitory activity.
Where [7] appears, read: alkaloids from Esenbeckia leiocarpa ref 40.

Where two headings read alike, the source gives them in different places.

T4 sequence (O42275 24-633): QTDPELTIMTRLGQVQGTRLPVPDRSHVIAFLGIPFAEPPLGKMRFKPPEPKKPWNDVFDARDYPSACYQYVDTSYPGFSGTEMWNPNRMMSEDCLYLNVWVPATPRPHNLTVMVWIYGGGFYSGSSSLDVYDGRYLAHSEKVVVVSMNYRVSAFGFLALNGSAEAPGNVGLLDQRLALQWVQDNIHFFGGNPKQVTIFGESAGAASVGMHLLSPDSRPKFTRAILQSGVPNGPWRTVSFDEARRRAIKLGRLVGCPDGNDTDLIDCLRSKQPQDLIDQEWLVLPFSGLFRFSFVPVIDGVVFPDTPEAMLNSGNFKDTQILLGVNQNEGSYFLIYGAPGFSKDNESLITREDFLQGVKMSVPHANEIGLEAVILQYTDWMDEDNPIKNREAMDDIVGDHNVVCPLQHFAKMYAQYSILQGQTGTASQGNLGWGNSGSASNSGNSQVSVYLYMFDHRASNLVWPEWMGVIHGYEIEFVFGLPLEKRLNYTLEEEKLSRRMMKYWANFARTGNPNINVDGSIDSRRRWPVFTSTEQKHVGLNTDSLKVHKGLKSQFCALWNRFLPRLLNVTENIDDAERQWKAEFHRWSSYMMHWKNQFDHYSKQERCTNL
T5 sequence (O42275 24-633): as above
T1 sequence (O42275 24-633): as above

For `C=C(C)[C@@H]1CC[C@]2(C(=O)O)CC[C@]3(C)C(CCC4[C@@]5(C)C(C=O)=CC(C)(C)C5CC[C@]43C)C12` (stereo partly shown) [Compound 1, Zizyberenalic acid], the IC50 in assay [1] is 184 ± 0.7 nM; in assay [2], 215 ± 5 nM; in assay [3], more than 500000 nM. Besides, in assay [4], the Ki was 46 nM. The “Inhibition Type” value in assay [4] is “mixed competitive mode inhibition”. Further, in assay [5], the inhibition at 0.75 µM is 19.7 ± 0.8%. Moreover, in assay [5] (1.5 µM compound, EeAChE), the inhibition at 1.5 µM came to 26.3 ± 1.3%.

As for `C=C(C)[C@@H]1CC[C@]2(C(=O)O)CC[C@]3(C)C(CCC4[C@@]5(C)C(C=O)C(O)C(C)(C)C5CC[C@]43C)C12` (stereo partly shown) [Compound 2, Zizyberanalic acid], the IC50 in assay [1] was 150 ± 0.9 nM; in assay [2], 173 ± 6 nM; in assay [3], more than 500000 nM. For the same compound, in assay [4], the Ki came out at 28 nM. In addition, in assay [4], the “Inhibition Type” value is listed as “mixed competitive mode inhibition”. Besides, the inhibition at 1.5 µM in assay [5] is 23.2 ± 0.8%.

As for `C=C(C)[C@@H]1CC[C@]2(C(=O)O)CC[C@]3(C)[C@H](CC[C@@H]4[C@@]5(C)[C@@H](C(=O)O)[C@H](O)C(C)(C)[C@@H]5CC[C@]43C)[C@@H]12` [Compound 3, Ceanothic acid], the IC50 in assay [1] was 125 ± 0.4 nM; in assay [2] it was 146 ± 3 nM; in assay [3], more than 500000 nM. The Ki in assay [4] came out at 55 nM. The “Inhibition Type” value is “partially competitive” in assay [4]; “competitive and reversible” in assay [4] (listed as compound 3). Moreover, the inhibition at 0.75 µM in assay [5] turned out to be 34.2 ± 0.6%. Besides, the inhibition at 1.5 µM in assay [5] (1.5 µM compound, EeAChE) was determined as 45.6 ± 1.1%.

Turning to `C=C(C)[C@@H]1CC[C@]2(C(=O)O)CC[C@]3(C(=O)O)[C@H](CC[C@@H]4[C@@]5(C)C=CC(C)(C)[C@@H]5CC[C@]43C)[C@@H]12` [Compound 4, Ceanothenic acid], the IC50 is 188 ± 0.5 nM in assay [1], 219 ± 4 nM in assay [2] and more than 500000 nM in assay [3]. For the same compound, in assay [4], the Ki came out at 22 nM. Besides, the “Inhibition Type” value in assay [4] was “mixed competitive mode inhibition”. The inhibition at 0.75 µM in assay [5] is 20.1 ± 1%. In addition, the inhibition at 1.5 µM in assay [5] (1.5 µM compound, EeAChE) came to 26.7 ± 1.3%.

For the compound `C=C(C)[C@@H]1CC[C@]2(C(=O)O)CC[C@]3(C)[C@H](CC[C@@H]4[C@@]5(C)[C@H](CO)[C@@H](O)C(C)(C)[C@@H]5CC[C@]43C)[C@@H]12` [Compound 5, Ceanothanolic acid], the figures for the IC50 in assay [1], in assay [2] and in assay [3] were 155 ± 0.1 nM, 181 ± 0.7 nM and more than 500000 nM, respectively. Besides, the Ki in assay [4] was 56 nM. Further, the “Inhibition Type” value in assay [4] is “mixed competitive mode inhibition”. Further, in assay [5], the inhibition at 0.75 µM was determined as 14.5 ± 0.3%. The inhibition at 1.5 µM in assay [5] (1.5 µM compound, EeAChE) was determined as 19.3 ± 1.5%.

For the compound `C=C(C)[C@@H]1CC[C@]2(C(=O)O)CC[C@]3(C)C(CCC4[C@@]5(C)C(C(=O)O)C(=O)C(C)(C)C5CC[C@]43C)C12` (stereo partly shown) [Compound 6, 3-oxo-ceanothic acid], the IC50 in assay [1] is 172 ± 1.2 nM; in assay [2], 199 ± 9 nM; in assay [3], more than 500000 nM. Also, the Ki in assay [4] amounted to 47 nM. Also, in assay [4], the “Inhibition Type” value is listed as “mixed competitive mode inhibition”. In addition, in assay [5], the inhibition at 0.75 µM amounted to 24.3 ± 0.7%. Further, the inhibition at 1.5 µM in assay [5] (1.5 µM compound, EeAChE) worked out at 40.5 ± 1.5%.

Turning to `C=C(C)[C@@H]1CC[C@]2(C(=O)O)CC[C@]3(C)C(CCC4[C@@]5(C)C(C(=O)O)C(OC(C)=O)C(C)(C)C5CC[C@]43C)C12` (stereo partly shown) [Compound 7, 3-O-acetyl-ceanothic acid], the IC50 was 179 ± 0.1 nM in assay [1], 207 ± 6 nM in assay [2] and more than 500000 nM in assay [3]. Further, the Ki in assay [4] turned out to be 50 nM. The “Inhibition Type” value in assay [4] is on record as “partially competitive”. Moreover, the inhibition at 1.5 µM in assay [5] was found to be 32.1 ± 1.3%.

As to `O=c1c(O)c(-c2ccccc2)oc2cc(O)cc(O)c12` [galangin], in assay [6], the IC50 was 120000 nM.

Regarding `COc1cc2nc3occc3c(OC)c2cc1OC` [kokusaginine], in assay [6] (setting [7]), the IC50 was 46000 nM.

Take `CCCc1cc(=O)c2ccccc2n1C` [leptomerine]: the IC50 in assay [6] (setting [7]) is 2500 nM.

Turning to `C[C@H]1[C@H](C)CC[C@]2(C(=O)O)CC[C@]3(C)C(=CC[C@@H]4[C@@]5(C)CC[C@H](O)C(C)(C)[C@@H]5CC[C@]43C)[C@H]12` [ursolic acid], the “mode of AChE inhibition” value in assay [6] is given as “competitive/non-competitive”.

The record behind these values is article PMC9318782, “Assessments of Ceanothanes Triterpenes as Cholinesterase Inhibitors: An Investigation of Potential Agents with Novel Inspiration for Drug Treatment of Neurodegenerative Diseases” (Metabolites, 2022).
